Laboratory results: patent US20230013823A1, “INHIBITORS OF HUMAN IMMUNODEFICIENCY VIRUS REPLICATION” (VIV HEALTHCARE UK (No. 5) LIMITED, priority 2019, published 2023)
Where two headings read alike, the source gives them in different places.

Experiments:
Format in all cases: cell-based
[1] = system: recombinant NL4-3 virus (Renilla luciferase in nef); assay: HIV cell culture assay (antiviral activity, luciferase readout in MT-2 cells)
Summary of the method: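 MT-2 cells were infected for 4-5 days with 293T-derived recombinant NL4-3 reporter virus in the presence of serially diluted compound. Antiviral activity was quantified as luciferase activity using a live-cell substrate. EC50 was derived from the median effect equation.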

[2] = system: uninfected MT2 cells; assay: Compound cytotoxicity, XTT-based colorimetric assay; settings: day 4, XTT
Description: (§1) Compound cytotoxicity and the corresponding CC50 values were determined using the same protocol as described in the antiviral assay except that uninfected cells were used. Cytotoxicity was assessed on day 4 in uninfected MT2 cells by using an XTT (2,3-bis[2-Methoxy-4-nitro-5-sulfophenyl]-2H-tetrazolium-5-carboxyanilide inner salt)-based colorimetric assay (Sigma-Aldrich, St Louis, Mo.).

[3] = as above; settings: human; uninfected MT2 cells, day 4, XTT
Description: as §1

[4] = MT=2 cells infected for 4-5 days with the recombinant virus, luciferase activity, read-out: EC50

Row | SMILES | EC50 [1, 4] [nM] | CC50 [2] [nM] | EC50 ([1]; Renilla, NL43) [nM] | CC50 at 4 days [3] [nM]
1 | Cn1nc(NS(C)(=O)=O)c2c(Cl)ccc(-n3c([C@H](Cc4cc(F)cc(F)c4)NC(=O)Cn4nc(C(F)(F)F)c5c4C(F)(F)[C@@H]4C[C@H]54)nc4cc(-c5ccn(CC(F)(F)C(F)F)n5)ccc4c3=O)c21 [Example 59, N—((S)-1-((3P)-3-(4-chloro-1-methyl-3-(methylsulfonamido)-1H-indazol-7-yl)-4-oxo-7-(1-(2,2,3,3-tetrafluoropropyl)-1H-pyrazol-3-yl)-3,4-dihydroquinazolin-2-yl)-2-(3,5-difluorophenyl)ethyl)-2-((3bS,4aR)-5,5-difluoro-3-(trifluoromethyl)-3b,4,4a,5-tetrahydro-1H-cyclopropa[3,4]cyclopenta[1,2-c]pyrazol-1-yl)acetamide] | 0.11 | > 100 | – | –
2 | CC(C(=O)NC(Cc1cc(F)cc(F)c1)c1nc2cc(-c3ccn(CC(C)(F)F)n3)ccc2c(=O)n1-c1ccc(Cl)c2c(NS(C)(=O)=O)nn(C)c12)n1ccc(C2CC2)n1 [Example 58, (S)—N—((S)-1-((3P)-3-(4-chloro-1-methyl-3-(methylsulfonamido)-1H-indazol-7-yl)-7-(1-(2,2-difluoropropyl)-1H-pyrazol-3-yl)-4-oxo-3,4-dihydroquinazolin-2-yl)-2-(3,5-difluorophenyl)ethyl)-2-(3-cyclopropyl-1H-pyrazol-1-yl)propanamide] | 0.046 | > 100 | – | –
3 | Cn1nc(NS(C)(=O)=O)c2c(Cl)ccc(-n3c([C@H](Cc4cc(F)cc(F)c4)NC(=O)Cn4nc(C(F)F)c5c4C(F)(F)[C@@H]4C[C@H]54)nc4cc(-c5ccn(CC(F)(F)C(F)F)n5)ccc4c3=O)c21 (atropisomer, axis not shown; (P)) [Example 47, N—((S)-1-((3P)-3-(4-chloro-1-methyl-3-(methylsulfonamido)-1H-indazol-7-yl)-4-oxo-7-(1-(2,2,3,3-tetrafluoropropyl)-1H-pyrazol-3-yl)-3,4-dihydroquinazolin-2-yl)-2-(3,5-difluorophenyl)ethyl)-2-((3bS,4aR)-3-(difluoromethyl)-5,5-difluoro-3b,4,4a,5-tetrahydro-1H-cyclopropa[3,4]cyclopenta[1,2-c]pyrazol-1-yl)acetamide] | – | – | 0.07 | > 100
4 | Cn1nc(NS(C)(=O)=O)c2c(Cl)ccc(-n3c([C@H](Cc4cc(F)cc(F)c4)NC(=O)Cn4nc(C(F)F)c5c4C(F)(F)[C@@H]4C[C@H]54)nc4cc(-c5ccn(CCC(C)(F)F)n5)ccc4c3=O)c21 (atropisomer, axis not shown; (P)) [Example 52, N—((S)-1-((3P)-3-(4-chloro-1-methyl-3-(methylsulfonamido)-1H-indazol-7-yl)-7-(1-(3,3-difluorobutyl)-1H-pyrazol-3-yl)-4-oxo-3,4-dihydroquinazolin-2-yl)-2-(3,5-difluorophenyl)ethyl)-2-((3bS,4aR)-3-(difluoromethyl)-5,5-difluoro-3b,4,4a,5-tetrahydro-1H-cyclopropa[3,4]cyclopenta[1,2-c]pyrazol-1-yl)acetamide] | – | – | 0.068 | > 100
